Laboratory results taken from patent publication US20120053172A1 (Cooperatieve MIRzorg U.A., priority 2009, published 2012).
Where two headings read alike, the source gives them in different places.

Experiments:
insulin secretion = conditions: comparable dosages; cited from earlier work
obese men [1] = system: obese men
Description: The study was focused on detecting the early beneficial effects. […] Metformin was started in a dose of 850 mg twice daily, and was increased to 850 mg three times daily in the second week. All subjects received exercise training three times a week, and all were instructed to take a 30 minute walk after lunch and after dinner.
Dietary intake was reduced by about 30%, according to the calculation procedure described in example 1.
A total of 19 obese men with a BMI of 30-37.5 kg/m^2 participated in the study.

[2] = system: hyperinsulinaemic patients; conditions: maximal 200 mg/day in three dosages, eight weeks; placebo 5.0 kg; cited from earlier work
obese men [3] = conditions: one week, cited from earlier work
[4] = system: hyperinsulinaemic obese subjects; conditions: 8-week weight-loss diet; 32 women, 3 men; cited from earlier work
obese men [5] = conditions: cited from earlier work
[6] = system: obese hyperinsulinaemic men; conditions: high-dose, 6 months, with moderate caloric restriction and lifestyle advice; cited from earlier work
obese, healthy men = test: First study: open, uncontrolled 6 month Diazoxide insulin suppression and weight loss study
Description: Fourteen obese, healthy men were studied for 6 months in an open, uncontrolled study.
All subjects received dietary advice to reduce caloric intake to meet the calculated basal requirements for ideal body weight (based on the Harrison-Bennedict equation). They were also instructed to increase walking exercise to at least 30 minutes a day. […] Subsequently, the following data were recorded every month, for a period of 6 months: body weight, abdominal circumference, supine and upright blood pressure, the results of a two-day, 8-point HGM, and adverse effects.
DZX was increased every month until a maximum of 900 mg/day was reached or until side effects occurred.

[7] = system: hyperinsulinaemic, non-diabetic adolescents; conditions: 850 mg twice daily for eight weeks; placebo 3.8%; cited from earlier work
adults = conditions: 2380±320 mg for six months; cited from earlier work
[8] = system: overweight patients with dyslipidemia; conditions: in vivo; cited from earlier work
[9] = oral 300 mg per day in three dosages
[10] = after six months, mean dosage about 585 mg/day

CNC(=NS(=O)(=O)c1ccc(Cl)cc1)N1C[C@H](c2ccccc2)C(c2ccc(Cl)cc2)=N1 [Compound A, (4S)-3-(4-chlorophenyl)-N′-[(4-chlorophenyl)sulfonyl]-N-methyl-4-phenyl-4,5-dihydro-1-H-pyrazole-1-carboximidamide]
inhibiting insulin secretion, compared with Diazoxide (insulin secretion): more effective than Diazoxide

CC1=NS(=O)(=O)c2cc(Cl)ccc2N1 [Diazoxide, 7-chloro-3-methyl-4H-1,2,4-benzothiadiazine-1,1-dioxide]
decrease in fasting serum insulin (obese men [1]; 2 months, mean±SEM, Diazoxide 100 mg twice then three times a day, Metformin 850 mg twice then three times daily): 42.4±17.7% | serum glucose level before treatment (obese men [1]; in vivo): 5.7 ± 0.2 mmol/L | weight loss [2]: 9.8 kg | effect on plasma glucose and insulin levels (obese men [3]; oral 150 mg per day in three dosages): no significant effect | effect on plasma glucose and insulin levels (obese men [3]; oral 225 mg per day in three dosages): no significant effect | effect on fasting or postprandial glucose levels (obese men [3]; [9]): without affecting fasting or postprandial glucose levels | reduction of plasma insulin levels (obese men [3]; [9]): about 20% | effect on weight loss [4]: No effect | body weight after treatment (obese men [5]; [10]): about 103 kg | plasma level of Diazoxide (obese men [5]; [10]): about 49 mg/l | body weight at start (obese men [5]; before treatment): about 114 kg | weight reduction [6]: relevant degree of weight reduction | body weight after treatment (obese, healthy men; 6 months): 105.7 ± 3.8 kg | other adverse effects (obese, healthy men; 6 months): not observed | waist circumference after treatment (obese, healthy men; 6 months): 107.7±2.2 cm | decrease of total body fat mass (obese, healthy men; 6 months, DEXA): 9.5 ± 1.9 kg | reduction of fasting insulin levels (obese, healthy men; 6 months, mean daily dose 600±54 mg, P<0.001): 65% | change in total body fat mass (obese, healthy men; 6 months, P<0.001): −23.3% | increase of fasting glucose (obese, healthy men; 6 months, P<0.01): 0.8 ± 0.3 mmol/L | body weight at baseline (obese, healthy men; baseline): 115.1 ± 3.4 kg | waist circumference at baseline (obese, healthy men; baseline): 116.9±1.4 cm

CN(C)C(=N)N=C(N)N [Metformin]
weight loss [7]: about 6.5% | weight reduction (adults): 3.24%

CC(C)CC(N(C)C)C1(c2ccc(Cl)cc2)CCC1 (stereo not drawn) [Sibutramine]
(placebo-subtracted) net weight loss [8]: about 5 kg

Cc1c(C(=O)NN2CCCCC2)nn(-c2ccc(Cl)cc2Cl)c1-c1ccc(Cl)cc1 [Rimonanbant, Rimonabant]
(placebo-subtracted) net weight loss [8]: about 6 kg

CCCCCCCCCCC[C@@H](C[C@@H]1OC(=O)[C@H]1CCCCCC)OC(=O)[C@H](CC(C)C)NC=O [Orlistat]
(placebo-subtracted) net weight loss [8]: ~3 kg
